Results taken from patent US10201556B2, “Combination for use in treating diseases or conditions associated with melanoma, or treating diseases or conditions associated with activated B-raf pathway” (InteRNA Technologies B.V., priority 2012, dated 2019).
Entries after “also recorded” stand apart in the source; their conditions may differ.

Key:
[1] = system: A375Hu melanoma cell line; assay: Anti-proliferative effect of miRNA mimics, MTS assay; type: cell-based, human; conditions: 10 nM mimic, 72 hours after transfection
Procedure: (§1) The anti-proliferative effect of miRNA's in melanoma cell lines was determined with mature miRNA mimics from Ambion. For each cell line optimal growth and transfection conditions were determined prior to the experiment. Cells were plated in a 96-well plate at 3000 cells per well (100 uL) and were grown at 37 C, 5% CO2. Transfection mix (20 uL per well) was made for each miRNA mimic concentration with 0.3 uL (M249, M249-R4) or 0.5 uL (A375Hu, A375Hu-R1, A2058, RPMI-7951) X-TremeGene (Roche) per well (according to manufacturer's instructions) in Optimem (Invitrogen). Cells were transfected 24 hours after plating in triplicate. Medium was replaced 48 hours after transfection with fresh medium.

[2] = system: A375Hu-R1 melanoma cell line; assay: as above; type: cell-based, human; conditions: 10 nM mimic, 72 hours after transfection
Procedure: as §1

[3] = system: RPMI-7951 melanoma cell line; assay: as above; type: cell-based; conditions: 10 nM mimic, 72 hours after transfection
Procedure: as §1

M249 melanoma cell line = assay: as above; type: cell-based; conditions: 5 nM mimic, 72 hours after transfection
Procedure: as §1

[4] = system: M249-AR (M249-R4) melanoma cell line; assay: as above; type: cell-based; conditions: 30 nM mimic, 72 hours after transfection
Procedure: as §1

A2058 melanoma cell line = assay: as above; type: cell-based; conditions: 10 nM mimic, 72 hours after transfection
Procedure: as §1

phospho-ERK1/2 = assay: Western immunoblotting of phospho-ERK1/2 protein levels; type: cell-based, human; conditions: A375Hu cells, 72 hrs, Western blot
Procedure: (§2) A375Hu cells were seeded in 6-well plates and transfected with different concentrations (10, 50 and 100 nM) of synthetic hsa-miR-129-5p or BRAF siRNA (100 nM) using RNAiMAX (7.5 μl/well). As control a scrambled miRNA and a non-targeting siRNA pool were included. Proteins were harvested 72 hrs post transfection using RIPA buffer supplemented with HALT™ Phosphatase Inhibitor (Thermo Scientific) and Protease Inhibitor Cocktail (Sigma). Fifteen μg protein was loaded on 7.5% TGX acrylamide gels (Bio-Rad) and subsequently transferred to PVDF membranes. The membranes were blocked in 5% milk in TBS-T and incubated O/N at 4° C. with primary antibodies to bRAF, phosphoERK1/2, CDK6, and tubulin (Santa Cruz). After incubation with secondary goat-anti-mouse antibodies (Santa Cruz), membranes were developed using ECL (Pierce).
as §2, with “(1, 10” for “(10, 50”, “hsa-miR-3157” for “hsa-miR-129-5p”, “bRAF, total ERK1/2,” for “bRAF,”, “CDK4, BCL2” for “CDK6,”
as §2, with “concentrations” for “concentrations (10, 50 and 100 nM)”, “vemurafenib (PLX-4032, 0.01, 0.1, 1 uM).” for “synthetic hsa-miR-129-5p or BRAF siRNA (100 nM) using RNAiMAX (7.5 μl/well). As control a scrambled miRNA and a non-targeting siRNA pool were included.”, “bRAF, total ERK1/2,” for “bRAF,”, “CDK4, BCL2” for “CDK6,”
A2058 cells were seeded in 6-well plates and transfected with different concentrations (1, 10 and 100 nM) of synthetic hsa-miR-3157-5p or BRAF siRNA using X-TremeGene (Roche, 15 μl/well). As control a scrambled miRNA was included. Proteins were harvested 72 hrs post transfection using RIPA buffer supplemented with HALT™ Phosphatase Inhibitor (Thermo Scientific) and Protease Inhibitor Cocktail (Sigma). Fifteen μg protein was loaded on 10% TGX acrylamide gels (Bio-Rad) and subsequently transferred to PVDF membranes. The membranes were blocked in 5% milk in TBS-T and incubated O/N at 4° C. with primary antibodies to bRAF, total ERK1/2, phosphoERK1/2, BCL2, CDK4 and tubulin (Santa Cruz). After incubation with secondary goat-anti-mouse antibodies (Santa Cruz), membranes were developed using ECL (Pierce).
Transfection was performed as described in Example 4 in 6-well format. Proteins were isolated using RIPA buffer (50 mM Tris pH 8.0, 150 mM NaCL, 1% NP-40, 0.5% Sodium deoxycholate, 0.1% SDS), supplemented with Protease Inhibitor Cocktail (Sigma) and Halt™ Phosphatase Inhibitor Cocktail (Pierce/Thermo Scientific). […]

CDK6 = assay: Western immunoblotting of CDK6 protein levels; type: cell-based, human; conditions: A375Hu cells, 72 hrs post transfection, Western blot
Procedure: as §2

Substance | A375Hu % Viability 10 nM [1] [%] | A375Hu-R1 % Viability 10 nM [2] [%] | RPMI-7951 % Viability 10 nM [3] [%] | M249 % Viability 5 nM (M249 melanoma cell line) [%] | M249-AR % Viability 30 nM [4] [%] | A2058 % Viability 10 nM (A2058 melanoma cell line) [%] | phospho-ERK1/2 protein levels (phospho-ERK1/2) | CDK6 protein levels (CDK6)
hsa-miR-7-5p: mature miRNA mimic, SEQ ID NO 1 UGGAAGACUAGUGAUUUUGUUGU (listed as RNA, chemistry not given here) | 58 | 68 | 65 | 48 | 67 | 51 | – | –
hsa-miR-10b-3p: mature miRNA mimic, SEQ ID NO 2 ACAGAUUCGAUUCUAGGGGAAU (listed as RNA, chemistry not given here) | 71 | 59 | 51 | 82 | 86 | 42 | – | –
hsa-miR-16-5p: mature miRNA mimic, SEQ ID NO 7 UAGCAGCACGUAAAUAUUGGCG (listed as RNA, chemistry not given here) | 62 | 57 | 68 | 27 | 68 | 39 | – | –
hsa-miR-96-5p: mature miRNA mimic, SEQ ID NO 3 UUUGGCACUAGCACAUUUUUGCU (listed as RNA, chemistry not given here) | 73 | 69 | 53 | 64 | 82 | 33 | – | –
hsa-miR-129-5p: mature miRNA mimic, SEQ ID NO 4 CUUUUUGCGGUCUGGGCUUGC (listed as RNA, chemistry not given here) | 59 | 48 | 82 | 47 | 64 | 44 | does not result in pERK down-regulation | significant reduction in CDK6 protein abundance; also recorded: down-regulates
hsa-miR-182-3p: mature miRNA mimic, SEQ ID NO 10 UGGUUCUAGACUUGCCAACUA (listed as RNA, chemistry not given here) | – | 59 | 68 | 71 | 83 | 77 | – | –
hsa-miR-200c-5p: mature miRNA mimic, SEQ ID NO 9 CGUCUUACCCAGCAGUGUUUGG (listed as RNA, chemistry not given here) | 43 | 66 | 58 | 44 | 58 | 37 | – | –
hsa-miR-497-5p: mature miRNA mimic, SEQ ID NO 8 CAGCAGCACACUGUGGUUUGU (listed as RNA, chemistry not given here) | 45 | 57 | 68 | 29 | 68 | 53 | – | –
hsa-miR-518b: mature miRNA mimic, SEQ ID NO 5 CAAAGCGCUCCCCUUUAGAGGU (listed as RNA, chemistry not given here) | 66 | – | 53 | 50 | 53 | 44 | – | –
